Assay results taken from PubChem BioAssay (NCI).
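Each compound was tested at five concentrations against cells in 96-well plates for 48 hours. The concentration for 50% growth inhibition is given as GI50. The concentration for full growth arrest is given as TGI.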

Key:
Test in all cases: NCI tumour cell line growth inhibition, 48 h
UACC-62 melanoma = tested on: UACC-62 melanoma
LOX IMVI melanoma = tested on: LOX IMVI melanoma
HT29 colon = tested on: HT29 colon
SF-539 CNS = tested on: SF-539 CNS
HCT-116 colon = tested on: HCT-116 colon
M14 melanoma = tested on: M14 melanoma
K-562 leukemia = tested on: K-562 leukemia
NCI-H226 lung = tested on: NCI-H226 lung
CAKI-1 renal = tested on: CAKI-1 renal
KM12 colon = tested on: KM12 colon
PC-3 prostate = tested on: PC-3 prostate
MDA-N = tested on: MDA-N

Which results are given for COc1ccc(-c2cc(=O)c3cc4c(cc3[nH]2)OCO4)cc1?
TGI (UACC-62 melanoma): > 100 µM; TGI (LOX IMVI melanoma): > 100 µM; TGI (HT29 colon): > 100 µM; TGI (SF-539 CNS): > 100 µM; TGI (HCT-116 colon): > 100 µM; TGI (M14 melanoma): > 100 µM; TGI (K-562 leukemia): > 100 µM; TGI (NCI-H226 lung): > 100 µM

Which TGI (UACC-62 melanoma) does the source give for COc1cccc2nc3cc(C)c(C)cc3nc12 here?
Its TGI is > 100 µM.

What about the TGI (LOX IMVI melanoma) of the same compound?
Its TGI is > 100 µM.

And the TGI (HT29 colon)?
Its TGI is > 100 µM.

What about the TGI (SF-539 CNS) of the same compound?
The TGI was > 100 µM.

What about the TGI (CAKI-1 renal) of the same compound?
Its TGI is > 100 µM.

What about the TGI (KM12 colon) of the same compound?
Its TGI is > 100 µM.

What about the TGI (HCT-116 colon) of the same compound?
Its TGI is > 100 µM.

What about the TGI (M14 melanoma) of the same compound?
The TGI was > 100 µM.

And the TGI (K-562 leukemia)?
The TGI was > 100 µM.

And the TGI (NCI-H226 lung)?
Its TGI is > 100 µM.

For Cc1ccc2c(c1)-c1c(C#N)c(N)nc(-c3ccccc3)c1CCS2(=O)=O, which TGI (UACC-62 melanoma) is on record?
Its TGI is > 100 µM.

What about the TGI (LOX IMVI melanoma) of the same compound?
The TGI was > 100 µM.

And the TGI (HT29 colon)?
The TGI was > 35 µM.

What about the TGI (SF-539 CNS) of the same compound?
Its TGI is > 100 µM.

What about the TGI (CAKI-1 renal) of the same compound?
Its TGI is > 100 µM.

And the TGI (KM12 colon)?
The TGI was > 100 µM.

And the TGI (HCT-116 colon)?
Its TGI is > 100 µM.

What about the TGI (PC-3 prostate) of the same compound?
The TGI was > 100 µM.

What about the TGI (M14 melanoma) of the same compound?
The TGI was > 100 µM.

What about the TGI (K-562 leukemia) of the same compound?
Its TGI is 11.7 µM.

And the TGI (NCI-H226 lung)?
The TGI was > 30.2 µM.

For CC(C)C12C=CC(C)(CC1)n1c(=O)c3cc4ccccc4cc3c(=O)n12 (centres undefined), which TGI (LOX IMVI melanoma) is on record?
Its TGI is > 100 µM.

What about the TGI (HT29 colon) of the same compound?
The TGI was > 100 µM.

What about the TGI (SF-539 CNS) of the same compound?
Its TGI is > 100 µM.

And the TGI (CAKI-1 renal)?
Its TGI is > 100 µM.

What about the TGI (KM12 colon) of the same compound?
Its TGI is > 100 µM.

What about the TGI (HCT-116 colon) of the same compound?
The TGI was > 100 µM.

And the TGI (M14 melanoma)?
The TGI was > 100 µM.

And the TGI (K-562 leukemia)?
Its TGI is > 100 µM.

And the TGI (NCI-H226 lung)?
Its TGI is > 100 µM.

How did the TGI (LOX IMVI melanoma) turn out when CC(C)C1COC(c2cccc(C3=N[C@@H](C(C)C)CO3)n2)=N1 (some centres undefined) was run?
The TGI was > 100 µM.

And the TGI (HT29 colon)?
The TGI was > 100 µM.

And the TGI (SF-539 CNS)?
The TGI was > 100 µM.

What about the TGI (CAKI-1 renal) of the same compound?
The TGI was > 100 µM.

And the TGI (KM12 colon)?
Its TGI is > 100 µM.

What about the TGI (HCT-116 colon) of the same compound?
Its TGI is > 100 µM.

What about the TGI (M14 melanoma) of the same compound?
Its TGI is > 100 µM.

What about the TGI (K-562 leukemia) of the same compound?
The TGI was > 100 µM.

What about the TGI (NCI-H226 lung) of the same compound?
Its TGI is > 100 µM.

How did the TGI (UACC-62 melanoma) turn out when CC(C)CCc1n[nH]c(=O)n1/N=C\c1ccccc1 was run?
The TGI was > 100 µM.

What about the TGI (LOX IMVI melanoma) of the same compound?
The TGI was > 100 µM.

What about the TGI (HT29 colon) of the same compound?
The TGI was > 100 µM.

And the TGI (SF-539 CNS)?
Its TGI is > 100 µM.

What about the TGI (KM12 colon) of the same compound?
Its TGI is > 100 µM.

And the TGI (HCT-116 colon)?
The TGI was > 100 µM.

What about the TGI (M14 melanoma) of the same compound?
The TGI was > 100 µM.

What about the TGI (MDA-N) of the same compound?
The TGI was > 100 µM.

What about the TGI (K-562 leukemia) of the same compound?
Its TGI is > 100 µM.

And the TGI (NCI-H226 lung)?
Its TGI is > 100 µM.

Which results are given for CCC(=O)N(O)C(C)(C)C?
TGI (UACC-62 melanoma): > 100 µM; TGI (LOX IMVI melanoma): > 100 µM; TGI (HT29 colon): > 100 µM; TGI (SF-539 CNS): > 100 µM; TGI (CAKI-1 renal): > 100 µM; TGI (KM12 colon): > 100 µM; TGI (HCT-116 colon): > 100 µM; TGI (M14 melanoma): > 100 µM; TGI (K-562 leukemia): > 100 µM; TGI (NCI-H226 lung): > 100 µM

How did the GI50 (UACC-62 melanoma) turn out when C[C@]12CCc3sc(Nc4ccc(O)cc4)nc3C1=CC[C@@H]1[C@@H]2CC[C@]2(C)C(=O)CC[C@@H]12 was run?
The GI50 was 1.76 µM.

And the TGI (UACC-62 melanoma)?
Its TGI is 4.02 µM.

And the GI50 (HT29 colon)?
Its GI50 is 2.13 µM.

And the TGI (HT29 colon)?
The TGI was 5.59 µM.

What about the GI50 (SF-539 CNS) of the same compound?
Its GI50 is 1.76 µM.

What about the TGI (SF-539 CNS) of the same compound?
Its TGI is 3.59 µM.

And the GI50 (PC-3 prostate)?
The GI50 was 2.49 µM.

What about the TGI (PC-3 prostate) of the same compound?
The TGI was 8.15 µM.

What about the GI50 (K-562 leukemia) of the same compound?
Its GI50 is 2.96 µM.

And the TGI (K-562 leukemia)?
Its TGI is > 100 µM.

What about the GI50 (NCI-H226 lung) of the same compound?
Its GI50 is 2.86 µM.

What about the TGI (NCI-H226 lung) of the same compound?
Its TGI is 8.52 µM.
